In ChEMBL document CHEMBL1201862, “PubChem BioAssay data set” (2004):
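How tested: cells in 96-well plates exposed to compound for 48 hours at five concentrations. Abbreviation: GI50, concentration required for 50% inhibition of growth.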 Active and inactive are the calls of the source. Rule as the data show it: active = GI50 up to about 1.1 µM and inactive = higher.

Tests used:
Test in all cases: DTP human tumour cell line panel, 48 h
Malme-3M = system: Malme-3M
SN12C = system: SN12C
HCT-116 = system: HCT-116
MDA-MB-231 = system: MDA-MB-231
SR = system: SR
CCRF-CEM = system: CCRF-CEM
SK-MEL-28 = system: SK-MEL-28
HL-60 = system: HL-60
NCI-H23 = system: NCI-H23
OVCAR-4 = system: OVCAR-4
BT-549 = system: BT-549
DU-145 = system: DU-145
MCF7 = system: MCF7
EKVX = system: EKVX
SF-268 = system: SF-268
K562 = system: K562
ACHN = system: ACHN
CAKI-1 = system: CAKI-1
M14 = system: M14
COLO 205 = system: COLO 205
SNB-19 = system: SNB-19
TK-10 = system: TK-10
A498 = system: A498
SK-OV-3 = system: SK-OV-3
SF-539 = system: SF-539
UO-31 = system: UO-31
LOX IMVI = system: LOX IMVI
NCI-H460 = system: NCI-H460
HOP-92 = system: HOP-92
IGROV-1 = system: IGROV-1
T47D = system: T47D
OVCAR-3 = system: OVCAR-3
NCI/ADR-RES = system: NCI/ADR-RES
MDA-MB-435 = system: MDA-MB-435
SF-295 = system: SF-295
UACC-62 = system: UACC-62
U-251 = system: U-251
KM12 = system: KM12
HT-29 = system: HT-29
Hs-578T = system: Hs-578T
SK-MEL-5 = system: SK-MEL-5
PC-3 = system: PC-3
NCI-H522 = system: NCI-H522
RPMI-8226 = system: RPMI-8226
SK-MEL-2 = system: SK-MEL-2
OVCAR-8 = system: OVCAR-8
HCT-15 = system: HCT-15
SW-620 = system: SW-620
MDA-N = system: MDA-N
786-0 = system: 786-0
HOP-62 = system: HOP-62
OVCAR-5 = system: OVCAR-5
HCC 2998 = system: HCC 2998
UACC-257 = system: UACC-257
MOLT-4 = system: MOLT-4
A549 = system: A549
NCI-H226 = system: NCI-H226
SNB-75 = system: SNB-75
RXF 393 = system: RXF 393

## CCOC(=O)/C=C(/C(=O)OCC)n1cnc2c(=O)[nH]c(NC(C)=O)nc21
Malme-3M
  GI50: > 100 µM (inactive)
SN12C
  GI50: > 100 µM (inactive)
HCT-116
  GI50: > 100 µM (inactive)
MDA-MB-231
  GI50: > 100 µM (inactive)
SR
  GI50: > 100 µM (inactive)
CCRF-CEM
  GI50: > 100 µM (inactive)
SK-MEL-28
  GI50: > 100 µM (inactive)
HL-60
  GI50: > 100 µM (inactive)
NCI-H23
  GI50: > 100 µM (inactive)
OVCAR-4
  GI50: > 100 µM (inactive)
BT-549
  GI50: > 100 µM (inactive)
DU-145
  GI50: > 100 µM (inactive)
MCF7
  GI50: > 100 µM (inactive)
EKVX
  GI50: > 100 µM (inactive)
SF-268
  GI50: > 100 µM (inactive)
K562
  GI50: > 100 µM (inactive)
ACHN
  GI50: > 100 µM (inactive)
CAKI-1
  GI50: > 100 µM (inactive)
M14
  GI50: > 100 µM (inactive)
COLO 205
  GI50: > 100 µM (inactive)
SNB-19
  GI50: > 100 µM (inactive)
TK-10
  GI50: > 100 µM (inactive)
A498
  GI50: > 100 µM (inactive)
SK-OV-3
  GI50: > 100 µM (inactive)
SF-539
  GI50: > 100 µM (inactive)
UO-31
  GI50: > 100 µM (inactive)
LOX IMVI
  GI50: > 100 µM (inactive)
NCI-H460
  GI50: > 100 µM (inactive)
HOP-92
  GI50: > 100 µM (inactive)
IGROV-1
  GI50: > 100 µM (inactive)
T47D
  GI50: > 100 µM (inactive)
OVCAR-3
  GI50: > 100 µM (inactive)
NCI/ADR-RES
  GI50: > 100 µM (inactive)
MDA-MB-435
  GI50: > 100 µM (inactive)
SF-295
  GI50: > 100 µM (inactive)
UACC-62
  GI50: > 100 µM (inactive)
U-251
  GI50: > 100 µM (inactive)
KM12
  GI50: > 100 µM (inactive)
HT-29
  GI50: > 100 µM (inactive)
Hs-578T
  GI50: > 100 µM (inactive)
SK-MEL-5
  GI50: > 100 µM (inactive)
PC-3
  GI50: > 100 µM (inactive)
NCI-H522
  GI50: > 100 µM (inactive)
RPMI-8226
  GI50: > 100 µM (inactive)
SK-MEL-2
  GI50: > 100 µM (inactive)
OVCAR-8
  GI50: > 100 µM (inactive)
HCT-15
  GI50: > 100 µM
SW-620
  GI50: > 100 µM (inactive)
MDA-N
  GI50: > 100 µM (inactive)
786-0
  GI50: > 100 µM (inactive)
HOP-62
  GI50: > 100 µM (inactive)
OVCAR-5
  GI50: > 100 µM (inactive)
HCC 2998
  GI50: > 100 µM (inactive)
UACC-257
  GI50: > 100 µM (inactive)
MOLT-4
  GI50: > 100 µM (inactive)
A549
  GI50: > 100 µM (inactive)
NCI-H226
  GI50: > 100 µM (inactive)
SNB-75
  GI50: > 100 µM (inactive)

## CC(=O)Oc1c2c(c3n(c1=O)CCCC3)C(=O)N(c1ccccc1)C2=O
Malme-3M
  GI50: > 100 µM (inactive)
SN12C
  GI50: 83.2 µM (inactive)
HCT-116
  GI50: > 100 µM (inactive)
MDA-MB-231
  GI50: > 100 µM (inactive)
RXF 393
  GI50: > 100 µM (inactive)
SR
  GI50: > 100 µM (inactive)
CCRF-CEM
  GI50: > 100 µM (inactive)
SK-MEL-28
  GI50: > 100 µM (inactive)
HL-60
  GI50: > 100 µM (inactive)
NCI-H23
  GI50: > 100 µM (inactive)
OVCAR-4
  GI50: 54.3 µM (inactive)
BT-549
  GI50: 38.2 µM (inactive)
DU-145
  GI50: > 100 µM (inactive)
MCF7
  GI50: > 100 µM (inactive)
EKVX
  GI50: 94 µM (inactive)
SF-268
  GI50: > 100 µM (inactive)
K562
  GI50: > 100 µM (inactive)
ACHN
  GI50: 51.4 µM (inactive)
CAKI-1
  GI50: > 100 µM (inactive)
M14
  GI50: > 100 µM (inactive)
COLO 205
  GI50: > 100 µM (inactive)
SNB-19
  GI50: > 100 µM (inactive)
TK-10
  GI50: 94.6 µM (inactive)
SK-OV-3
  GI50: > 100 µM (inactive)
SF-539
  GI50: > 100 µM (inactive)
UO-31
  GI50: 95.7 µM (inactive)
LOX IMVI
  GI50: > 100 µM (inactive)
NCI-H460
  GI50: > 100 µM (inactive)
HOP-92
  GI50: 40.7 µM (inactive)
IGROV-1
  GI50: 78.5 µM (inactive)
T47D
  GI50: 87.5 µM (inactive)
OVCAR-3
  GI50: 86.7 µM (inactive)
NCI/ADR-RES
  GI50: 65.3 µM (inactive)
MDA-MB-435
  GI50: 46.9 µM (inactive)
SF-295
  GI50: 61 µM (inactive)
UACC-62
  GI50: 63.7 µM (inactive)
U-251
  GI50: > 100 µM (inactive)
KM12
  GI50: > 100 µM (inactive)
HT-29
  GI50: 94.2 µM (inactive)
Hs-578T
  GI50: > 100 µM (inactive)
SK-MEL-5
  GI50: 53.3 µM (inactive)
PC-3
  GI50: 46.5 µM (inactive)
NCI-H522
  GI50: 61.5 µM (inactive)
SK-MEL-2
  GI50: 45.8 µM (inactive)
OVCAR-8
  GI50: > 100 µM (inactive)
HCT-15
  GI50: 59 µM
SW-620
  GI50: > 100 µM (inactive)
MDA-N
  GI50: 52.8 µM (inactive)
786-0
  GI50: > 100 µM (inactive)
HOP-62
  GI50: > 100 µM (inactive)
OVCAR-5
  GI50: > 100 µM (inactive)
HCC 2998
  GI50: 30.8 µM (inactive)
MOLT-4
  GI50: > 100 µM (inactive)
A549
  GI50: > 100 µM (inactive)
NCI-H226
  GI50: 60 µM (inactive)
SNB-75
  GI50: 87.5 µM (inactive)
